Data published in ChEMBL document CHEMBL3797203, “Plasmin inhibitors with hydrophobic amino acid-based linker between hydantoin moiety and benzimidazole scaffold enhance inhibitory activity” (Bioorg Med Chem Lett, 2016).

Experiments:
Plasminogen = Plasminogen (Homo sapiens, UniProt P00747); assay: Inhibition of human plasmin using Boc-Val-Leu-Lys-MCA as substrate by fluorescence assay
[1] = target: Urokinase-type plasminogen activator (Homo sapiens, UniProt P00749); assay: Inhibition of human urokinase using Pyr-Gly-Arg-MCA as substrate by fluorescence assay
Homo sapiens = species: Homo sapiens; assay: Selectivity ratio of IC50 for human urokinase to IC50 for human plasmin

Chain of Plasminogen (P00747 97-580 limits assumed): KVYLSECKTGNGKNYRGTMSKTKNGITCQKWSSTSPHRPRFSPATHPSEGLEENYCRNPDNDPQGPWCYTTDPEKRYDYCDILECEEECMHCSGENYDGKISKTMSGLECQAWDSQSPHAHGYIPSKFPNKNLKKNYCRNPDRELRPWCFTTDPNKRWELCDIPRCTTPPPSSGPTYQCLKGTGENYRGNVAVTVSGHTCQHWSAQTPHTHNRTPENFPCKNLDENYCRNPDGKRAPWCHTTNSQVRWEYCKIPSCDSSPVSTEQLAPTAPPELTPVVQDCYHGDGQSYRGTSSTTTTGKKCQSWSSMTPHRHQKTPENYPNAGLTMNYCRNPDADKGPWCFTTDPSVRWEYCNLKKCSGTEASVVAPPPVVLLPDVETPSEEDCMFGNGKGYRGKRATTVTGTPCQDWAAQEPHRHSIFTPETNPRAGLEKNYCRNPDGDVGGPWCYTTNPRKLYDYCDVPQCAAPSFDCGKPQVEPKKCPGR
Chain of Plasminogen (P00747 581-810 limits assumed): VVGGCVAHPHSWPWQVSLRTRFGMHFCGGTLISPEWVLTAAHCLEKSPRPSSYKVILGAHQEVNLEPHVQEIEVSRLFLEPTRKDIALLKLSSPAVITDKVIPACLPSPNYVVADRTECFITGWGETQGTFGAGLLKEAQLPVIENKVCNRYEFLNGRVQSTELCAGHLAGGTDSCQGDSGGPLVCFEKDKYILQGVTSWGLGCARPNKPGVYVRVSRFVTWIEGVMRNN

SMILES	IC50 (Plasminogen) [µM]	IC50 [1] [µM]	Ratio IC50 (Homo sapiens)
CC(C)[C@@H](c1nc2ccc(C(=O)N[C@H](C#N)CCCCN)cc2n1C)N1C(=O)CN(c2ccc(Oc3ccccc3)cc2)C1=O	28	> 200	–
CC(C)[C@H](c1nc2ccc(C(=O)N[C@H](C#N)CCCCN)cc2n1C)N1C(=O)CN(c2ccc(Oc3ccccc3)cc2)C1=O	4.9	> 200	40
C[C@@H](c1nc2ccc(C(=O)N[C@H](C#N)CCCCN)cc2n1C)N1C(=O)CN(c2ccc(Oc3ccccc3)cc2)C1=O	11	> 200	–
C[C@H](c1nc2ccc(C(=O)N[C@H](C#N)CCCCN)cc2n1C)N1C(=O)CN(c2ccc(Oc3ccccc3)cc2)C1=O	19	160	–
C[C@@H](c1nc2ccc(C(=O)N[C@H](C#N)CCCCN)cc2n1C)N1C(=O)CN(c2ccc(Oc3ccncc3)cc2)C1=O	19	> 200	–
CC[C@@H](C)[C@H](c1nc2ccc(C(=O)N[C@H](C#N)CCCCN)cc2n1C)N1C(=O)CN(c2ccc(Oc3ccccc3)cc2)C1=O	6.7	> 200	–
Cn1c(CN2C(=O)CN(c3ccc(F)cc3)C2=O)nc2ccc(C(=O)N[C@H](C#N)CCCCN)cc21	–	> 200	–
C[C@H](c1nc2ccc(C(=O)N[C@H](C#N)CCCCN)cc2n1C)N1C(=O)CN(c2ccc(Oc3ccncc3)cc2)C1=O	12	> 200	–
C[C@H](c1nc2ccc(C(=O)N[C@H](C#N)CCCCN)cc2n1C)N1C(=O)CN(c2ccc(F)cc2)C1=O	45	> 200	–
C[C@@H](c1nc2ccc(C(=O)N[C@H](C#N)CCCCN)cc2n1C)N1C(=O)CN(c2ccc(F)cc2)C1=O	25	> 200	–
CC(C)C[C@H](c1nc2ccc(C(=O)N[C@H](C#N)CCCCN)cc2n1C)N1C(=O)CN(c2ccc(Oc3ccccc3)cc2)C1=O	7.7	150	–
